Source: US20240050409A1, “Methods and Compositions for Treating Psychotic Disorders” (SOUND PHARMACEUTICALS INCORPORATED, priority 2014, published 2024)
Entries after “also recorded” stand apart in the source; their conditions may differ.

Experiments:
[1] = test system: 3-NT levels in PFC of NVHL rats; experiment: 3-Nitrotyrosine (3-NT) labeling in adult PFC of NVHL rats; assay type: in vivo, Sprague-Dawley rats; details: P61 NVHL rats, juvenile treatment
Text: To assess oxidative stress, DNA oxidation with 8-oxo-7,8-dihydro-20-deoxyguanine (8-oxo-dG) labeling was quantified. […] 3-NT indicates nitration of proteins due to oxidative and nitrosative stress (Radi, 2004), and its increase in NVHL rats was prevented by NAC treatment during development (as shown in FIGS. 9A and 9B). […] A possible explanation for the levels of oxidative stress detected in the adult PFC following an NVHL is the reduced glutamatergic input from ventral hippocampus during development, as blocking NMDA receptors induces oxidative stress in PVI (Behrens et al., 2007).
(§1) Antioxidant pretreatment regimen: NAC (BioAdvantexPharma, Mississauga, Ontario, Canada) was administered in the drinking water at 900 mg/l. NAC treatment started at P5 or at P35, and previous work in mice has shown that NAC consumed by the dam is transmitted to the pups through her milk (das Neves Duarte et al., 2012). NAC treatment ended at P50. Fresh solutions were prepared every 2-3 days. Ebselen (Sound Pharmaceuticals Inc., Seattle, WA) was administered i.p. 5 days a week starting at P35 until the day of PPI testing (P60). Stock ebselen solution (20 mg/ml DMSO, frozen aliquots) was diluted 1:5 in sterile water and administered at a dose of 10 mg/kg. Control animals received an equivalent concentration of DMSO diluted 1:5 in water. […]

[2] = test system: PFC pyramidal neurons of NVHL rats; experiment: In vivo intracellular recordings: PFC pyramidal cell firing after VTA stimulation in NVHL rats; design: species or system Sprague-Dawley rats; details: anesthetized adult NVHL rats, juvenile treatment
Experimental: The abnormal dopamine modulation of PFC function in NVHL rats is also observed in vivo. In vivo intracellular recordings were performed in 38 pyramidal neurons from adult rats (n=9 SHAM (placebo), n=5 NVHL, and n=7 NAC-treated NVHL). […] Up states occurred at a frequency of 0.6±0.1 Hz with a duration of 523.6±24.7 ms. The majority of cells (n=21) fired spontaneously at a rate of 2.1±0.7 Hz.
as §1
Microelectrodes were advanced through the medial PFC until a neuron was impaled. […] Firing was measured in the 500 ms epoch following the last VTA pulse in all sweeps, and compared among experimental groups. […]

CC(=O)N[C@@H](CS)C(=O)O [NAC, N-acetyl cysteine]
effect on increase in 3-NT labeling in PFC [1]: prevented | effect on abnormal increase in pyramidal cell firing after VTA burst stimulation [2]: prevented; also recorded: sparse
